The test system of the assay is ulcerative colitis model (dextran sodium sulphate). Description: Effect example 2: therapeutic effect on ulcerative colitis, dextran sodium sulphate model, oral gavage, 14 days. The note with it: for Weight effect compared with the positive control drug SASP (in words): 40 mg/kg oral gavage vs SASP 30 mg/kg oral gavage; for Effect on the reduction of weight in mice (in words): 40 mg/kg oral gavage, vs ulcerative colitis model group; for Average weight of mice / Average colon length of mice: treatment group 40 mg/kg oral gavage; for Average colon length of mice: day 14. Type of assay: in vivo, C57 mice. As to the method: Thirty-five 10-week-old male C57 mice, SPF class animal house, temperature 20-26° C., humidity 40%-70%, alternating light-dark periods (12 h/12 h).
Quarantine-qualified animals with similar weights were selected for the experiment.
Mice in the blank control group were given normal drinking water throughout the experiment. The other 6 groups of mice were given drinking water containing 2% dextran sodium sulphate from day 1 to day 5, normal drinking water from day 6 to day 7, drinking water containing 2% dextran sodium sulphate from day 8 to day 12, and normal drinking water from day 13 to day 14. The experiment ended on day 14. All groups were administered by oral gavage once a day according to table 7, until the end of the experiment on day 14.
(1) The mice were weighed daily.
(2) Blood samples were collected from the orbital vein on day 14 and stored at −80° C.
(3) On day 14, the mice were sacrificed by cervical vertebra dislocation, the colon was removed and a small amount of fecal was taken from the colon and left as a sample. The colon length and colon weight were measured. A portion of the colon and the fecal sample was stored at −80° C.

Molecules are shown by their SMILES.

The source of these data is patent US20230092001A1, “FURANEOL GLYCOSIDE COMPOUND, PHARMACEUTICAL COMPOSITION THEREOF, PREPARATION METHOD THEREFOR, AND APPLICATION THEREOF” (priority 2019, published 2023).

As for `CC(=O)OC[C@H]1O[C@@H](OC2=C(C)OC(=C(C)C)C2=O)[C@H](OC(C)=O)[C@@H](OC(C)=O)[C@H]1OC(C)=O` [Compound I-4, 4-O-[(2,3,4,6-tetra-O-acetyl)-β-D-galactosyl]-5-methyl-2-(1-methylethylidene)-3(2H)-furanone], the “Weight effect compared with the positive control drug SASP (in words)” value was “better than the positive control drug”, the “Effect on the reduction of weight in mice (in words)” value (shortened to “Effect on the reduction of weight”) is “significant improvement in the reduction of weight in mice” and the “Average colon length of mice” value was found to be 6.2 cm. Also, under “Day 1”, the “Average weight of mice” value amounted to 26.72 g. Also, the “Average weight of mice” value (Day 2) is recorded as 26.76 g. Further, the “Average weight of mice” value (Day 3) was determined as 26.72 g. Besides, the “Average weight of mice” value (Day 4) was found to be 26.72 g. The “Average weight of mice” value (Day 5) is on record as 26.44 g. For the same compound, the “Average weight of mice” value (Day 6) is recorded as 26.36 g. In addition, the “Average weight of mice” value (Day 7) was determined as 24.82 g. Besides, the “Average weight of mice” value (Day 8) was 23.44 g. Further, the “Average weight of mice” value (Day 9) amounted to 23.3 g. For the same compound, the “Average weight of mice” value (Day 10) is recorded as 23.3 g. In addition, for the setting “Day 11”, the “Average weight of mice” value turned out to be 24.02 g. In addition, the “Average weight of mice” value (Day 12) is reported as 24.14 g. Moreover, under “Day 13”, the “Average weight of mice” value was determined as 24.5 g. Also, the “Average weight of mice” value (Day 14) is on record as 24.68 g.
For `COC(=O)[C@H]1O[C@@H](OC2=C(C)OC(=C(C)C)C2=O)[C@H](OC(C)=O)[C@@H](OC(C)=O)[C@@H]1OC(C)=O` [Compound I-5], the “Weight effect compared with the positive control drug SASP (in words)” value was “better than the positive control drug”, the “Effect on the reduction of weight” value was “significant improvement in the reduction of weight in mice” and the “Average colon length of mice” value turned out to be 6.0 cm. For the same compound, the “Average weight of mice” value (Day 1) came to 26.9 g. The “Average weight of mice” value (Day 2) is 26.92 g. Also, the “Average weight of mice” value (Day 3) amounted to 26.88 g. The “Average weight of mice” value (Day 4) turned out to be 26.9 g. For the same compound, the “Average weight of mice” value (Day 5) stood at 26.58 g. In addition, the “Average weight of mice” value (Day 6) was 26.32 g. Where the note is “Day 7”, the “Average weight of mice” value is given as 25.3 g. Moreover, the “Average weight of mice” value (Day 8) was 23.6 g. In addition, for the setting “Day 9”, the “Average weight of mice” value was 23.24 g. Also, the “Average weight of mice” value (Day 10) turned out to be 23.24 g. For the same compound, the “Average weight of mice” value (Day 11) was 24.2 g. Further, where the note is “Day 12”, the “Average weight of mice” value came to 24.48 g. For the same compound, the “Average weight of mice” value (Day 13) amounted to 24.5 g. In addition, the “Average weight of mice” value (Day 14) is reported as 24.68 g.
For `CC(C)=C1OC(C)=C(O[C@@H]2O[C@H](COC(=O)C(C)(C)C)[C@@H](OC(=O)C(C)(C)C)[C@H](OC(=O)C(C)(C)C)[C@H]2OC(=O)C(C)(C)C)C1=O` [Compound I-6], the “Weight effect compared with the positive control drug SASP (in words)” value is given as “better than the positive control drug”, the “Effect on the reduction of weight” value is “significant improvement in the reduction of weight in mice” and the “Average colon length of mice” value amounted to 5.9 cm. The “Average weight of mice” value (Day 1) came out at 26.9 g. In addition, the “Average weight of mice” value (Day 2) stood at 26.94 g. Besides, the “Average weight of mice” value (Day 3) turned out to be 26.9 g. Also, for the setting “Day 4”, the “Average weight of mice” value amounted to 26.9 g. The “Average weight of mice” value (Day 5) was determined as 26.64 g. In addition, the “Average weight of mice” value (Day 6) came to 26.2 g. Moreover, for the setting “Day 7”, the “Average weight of mice” value was found to be 24.52 g. Also, where the note is “Day 8”, the “Average weight of mice” value is recorded as 24.38 g. Also, the “Average weight of mice” value (Day 9) worked out at 24.42 g. In addition, the “Average weight of mice” value (Day 10) is 24.42 g. Also, the “Average weight of mice” value (Day 11) was determined as 24.66 g. For the same compound, the “Average weight of mice” value (Day 12) turned out to be 24.94 g. Besides, where the note is “Day 13”, the “Average weight of mice” value was 24.72 g. In addition, the “Average weight of mice” value (Day 14) is 24.5 g.
